Read-outs that look alike come from different tables or passages of the source.
Columns and labels:
[1] = Kinetic study: plasma kinetics of TMC278 after single IM or SC injection of a nanosuspension; format: in vivo, male beagle dogs; conditions: male, beagle, dog, plasma, sc, 5 mg/kg; for concentration at 0 h / concentration at 1 h / concentration at 3 h / concentration at 8 h / concentration at 24 h / concentration at 48 h / concentration at 72 h / concentration at 144 h / concentration at 192 h / concentration at 240 h / concentration at 312 h / concentration at 384 h / concentration at 480 h / concentration at 648 h / concentration at 696 h / concentration at 864 h / concentration at 1032 h / concentration at 1200 h / concentration at 1368 h / concentration at 1536 h / concentration at 1704 h / concentration at 1872 h / concentration at 2040 h / concentration at 2208 h: plasma concentration of TMC278, single SC 5 mg/kg TMC278 nanosuspension; for AUC(0-t) / Cmax / Tmax: single SC 5 mg/kg TMC278 nanosuspension; for Cmax: read-out: Cmax; for Tmax: read-out: Tmax;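 for all read-outs here: healthy male beagle dogs injected in both biceps femoris muscles (IM) or both thoracal sides (SC), total volume 0.2 mL/kg, drug measured in plasma from blood samples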
Description: Six healthy male beagle dogs with body weights ranging from 8 to 16 kg at the start of the study, were used. Each dog was identified by an ear tattoo number. Two dogs were dosed intramuscularly (IM) in the left and right m. biceps femoris (treatment group A). […] Two dogs were dosed subcutaneously (SC) in the left and right thoracal region. The injection volume was 2×0.1 ml/kg in all treatment groups. A 20 G needle was used.
Blood samples of 3 ml were taken from the left jugular vein from all dogs on day 0 at 0 h (predose), 20 min, 1 h, 3 h, 8 h and 24 h post-dose and further on days 2, 3, 6, 8, 10, 13, 16, 20, 23, 27, 29, 36, 43, 50, 57, 64, 71, 78, 85 and 92 at approximately 8 AM. Blood samples were placed on EDTA, EDTA Vacuette Greiner, Cat. No. 454086, Greiner Labortechnik N.V.). Within 2 h of blood sampling, samples were centrifuged at room temperature at about 1900×g for 10 minutes to allow plasma separation. Plasma was immediately transferred into a second tube and stored in the freezer within 2 hours after the start of centrifugation.

wild type HIV = conditions: cited from earlier work
mutated variants of HIV = conditions: many of its mutated variants; cited from earlier work

Cc1cc(C=CC#N)cc(C)c1Nc1ccnc(Nc2ccc(C#N)cc2)n1 [TMC278, 4-[[4-[[4-(2-cyanoethenyl)-2,6-dimethylphenyl]amino]-2-pyrimidinyl]amino]benzonitrile]
concentration at 0 h ([1]; dog 19129, 0 h (d0, predose)): < 1 ng/mL | concentration at 1 h ([1]; dog 19129, 1 h): 1.62 ng/mL | concentration at 3 h ([1]; dog 19129, 3 h): 7.96 ng/mL | concentration at 8 h ([1]; dog 19129, 8 h): 27.6 ng/mL | concentration at 24 h ([1]; dog 19129, 24 h (d1)): 15.7 ng/mL | concentration at 48 h ([1]; dog 19129, 48 h (d2)): 34.8 ng/mL | concentration at 72 h ([1]; dog 19129, 72 h (d3)): 26.1 ng/mL | concentration at 144 h ([1]; dog 19129, 144 h (d6)): 18.9 ng/mL | concentration at 192 h ([1]; dog 19129, 192 h (d8)): 17.7 ng/mL | concentration at 240 h ([1]; dog 19129, 240 h (d10)): 24.3 ng/mL | concentration at 312 h ([1]; dog 19129, 312 h (d13)): 21.7 ng/mL | concentration at 384 h ([1]; dog 19129, 384 h (d16)): 21.7 ng/mL | concentration at 480 h ([1]; dog 19129, 480 h (d20)): 29.8 ng/mL | concentration at 648 h ([1]; dog 19129, 648 h (d27)): 19 ng/mL | concentration at 696 h ([1]; dog 19129, 696 h (d29)): 21 ng/mL | concentration at 864 h ([1]; dog 19129, 864 h (d36)): 12.7 ng/mL | concentration at 1032 h ([1]; dog 19129, 1032 h (d43)): 5.22 ng/mL | concentration at 1200 h ([1]; dog 19129, 1200 h (d50)): 6.37 ng/mL | concentration at 1368 h ([1]; dog 19129, 1368 h (d57)): 4.78 ng/mL | concentration at 1536 h ([1]; dog 19129, 1536 h (d64)): 6.45 ng/mL | concentration at 1704 h ([1]; dog 19129, 1704 h (d71)): 3.96 ng/mL | concentration at 1872 h ([1]; dog 19129, 1872 h (d78)): 3.66 ng/mL | concentration at 2040 h ([1]; dog 19129, 2040 h (d85)): 8.6 ng/mL | concentration at 2208 h ([1]; dog 19129, 2208 h (d92)): 3.05 ng/mL | concentration at 0 h ([1]; dog 19349, 0 h (d0, predose)): < 1 ng/mL | concentration at 1 h ([1]; dog 19349, 1 h): 1.37 ng/mL | concentration at 3 h ([1]; dog 19349, 3 h): 8.42 ng/mL | concentration at 8 h ([1]; dog 19349, 8 h): 13.8 ng/mL | concentration at 24 h ([1]; dog 19349, 24 h (d1)): 28.5 ng/mL | concentration at 48 h ([1]; dog 19349, 48 h (d2)): 29.1 ng/mL | concentration at 72 h ([1]; dog 19349, 72 h (d3)): 30.6 ng/mL | concentration at 144 h ([1]; dog 19349, 144 h (d6)): 32.7 ng/mL | concentration at 192 h ([1]; dog 19349, 192 h (d8)): 23 ng/mL | concentration at 240 h ([1]; dog 19349, 240 h (d10)): 42 ng/mL | concentration at 312 h ([1]; dog 19349, 312 h (d13)): 38.8 ng/mL | concentration at 384 h ([1]; dog 19349, 384 h (d16)): 16.6 ng/mL | concentration at 480 h ([1]; dog 19349, 480 h (d20)): 21.2 ng/mL | concentration at 648 h ([1]; dog 19349, 648 h (d27)): 11 ng/mL | concentration at 696 h ([1]; dog 19349, 696 h (d29)): 10.5 ng/mL | concentration at 864 h ([1]; dog 19349, 864 h (d36)): 5.49 ng/mL | concentration at 1032 h ([1]; dog 19349, 1032 h (d43)): 6.03 ng/mL | concentration at 1200 h ([1]; dog 19349, 1200 h (d50)): 3.4 ng/mL | concentration at 1368 h ([1]; dog 19349, 1368 h (d57)): 2.52 ng/mL | concentration at 1536 h ([1]; dog 19349, 1536 h (d64)): 2.05 ng/mL | concentration at 1704 h ([1]; dog 19349, 1704 h (d71)): 3.57 ng/mL | concentration at 1872 h ([1]; dog 19349, 1872 h (d78)): 1.91 ng/mL | concentration at 2040 h ([1]; dog 19349, 2040 h (d85)): 2.82 ng/mL | concentration at 2208 h ([1]; dog 19349, 2208 h (d92)): 2.49 ng/mL | concentration at 0 h ([1]; mean of 2 dogs, 0 h (d0, predose)): < 1 ng/mL | concentration at 1 h ([1]; mean of 2 dogs, 1 h): 1.5 ng/mL | concentration at 3 h ([1]; mean of 2 dogs, 3 h): 8.19 ng/mL | concentration at 8 h ([1]; mean of 2 dogs, 8 h): 20.7 ng/mL | concentration at 24 h ([1]; mean of 2 dogs, 24 h (d1)): 22.1 ng/mL | concentration at 48 h ([1]; mean of 2 dogs, 48 h (d2)): 32 ng/mL | concentration at 72 h ([1]; mean of 2 dogs, 72 h (d3)): 28.4 ng/mL | concentration at 144 h ([1]; mean of 2 dogs, 144 h (d6)): 25.8 ng/mL | concentration at 192 h ([1]; mean of 2 dogs, 192 h (d8)): 20.4 ng/mL | concentration at 240 h ([1]; mean of 2 dogs, 240 h (d10)): 33.2 ng/mL | concentration at 312 h ([1]; mean of 2 dogs, 312 h (d13)): 30.3 ng/mL | concentration at 384 h ([1]; mean of 2 dogs, 384 h (d16)): 19.2 ng/mL | concentration at 480 h ([1]; mean of 2 dogs, 480 h (d20)): 25.5 ng/mL | concentration at 648 h ([1]; mean of 2 dogs, 648 h (d27)): 15 ng/mL | concentration at 696 h ([1]; mean of 2 dogs, 696 h (d29)): 15.8 ng/mL | concentration at 864 h ([1]; mean of 2 dogs, 864 h (d36)): 9.1 ng/mL | concentration at 1032 h ([1]; mean of 2 dogs, 1032 h (d43)): 5.63 ng/mL | concentration at 1200 h ([1]; mean of 2 dogs, 1200 h (d50)): 4.89 ng/mL | concentration at 1368 h ([1]; mean of 2 dogs, 1368 h (d57)): 3.65 ng/mL | concentration at 1536 h ([1]; mean of 2 dogs, 1536 h (d64)): 4.25 ng/mL | concentration at 1704 h ([1]; mean of 2 dogs, 1704 h (d71)): 3.77 ng/mL | concentration at 1872 h ([1]; mean of 2 dogs, 1872 h (d78)): 2.79 ng/mL | concentration at 2040 h ([1]; mean of 2 dogs, 2040 h (d85)): 5.71 ng/mL | concentration at 2208 h ([1]; mean of 2 dogs, 2208 h (d92)): 2.77 ng/mL | AUC(0-t) ([1]; dog 19129, read-out: AUC0-312 h): 6910 ng·h/mL | AUC(0-t) ([1]; dog 19129, read-out: AUC0-696 h): 15900 ng·h/mL | AUC(0-t) ([1]; dog 19129, read-out: AUC0-2208 h): 26400 ng·h/mL | Cmax ([1]; dog 19129): 34.8 ng/mL | Tmax ([1]; dog 19129): 48 h | AUC(0-t) ([1]; dog 19349, read-out: AUC0-312 h): 9880 ng·h/mL | AUC(0-t) ([1]; dog 19349, read-out: AUC0-696 h): 16700 ng·h/mL | AUC(0-t) ([1]; dog 19349, read-out: AUC0-2208 h): 22400 ng·h/mL | Tmax ([1]; dog 19349): 240 h | AUC(0-t) ([1]; mean of 2 dogs, read-out: AUC0-312 h): 8400 ng·h/mL | AUC(0-t) ([1]; mean of 2 dogs, read-out: AUC0-696 h): 16300 ng·h/mL | AUC(0-t) ([1]; mean of 2 dogs, read-out: AUC0-2208 h): 24400 ng·h/mL | Cmax ([1]; mean of 2 dogs): 38.4 ng/mL | Tmax ([1]; mean of 2 dogs): 144 h | activity against wild type HIV (in words) (wild type HIV): pronounced activity | activity against mutated variants of HIV (in words) (mutated variants of HIV): pronounced activity
